From patent publication US20260124240A1, “DRUG RESISTANT IMMUNE CELLS” (The Regents of the University of California, priority 2022, published 2026)

Columns and labels:
[1] = system: WT iPSC-derived NK cells (BCL2WT/WT); test: Venetoclax dose response / cell survival assay on WT iPSC-derived NK cells; type: cell-based, human
Protocol: (§1) FIGS. 12A-12H: BCL2 G101V iPSC-derived NK cells are resistant to venetoclax and anti-apoptotic BCL2 family member levels are unchanged. Dose response curves for WT iPSC-derived NK (FIG. 12A), Homozygous BCL2 G101V iPSC-derived NK cells (FIG. 12B), and Heterozygous BCL2 G101V iPSC-derived NK cells (FIG. 12C) treated with Venetoclax and assessed for viability at 72 hours post treatment. FIG. 12D. Dose response for WT iPSC-derived NK and homozygous BCL2 G101V iPSC-derived NK cells treated with dexamethasone and assessed for viability at 72 hours post treatment. […] real-time PCR analysis of BCL2 (FIG. 12E), BCL-XL (FIG. 12F), and MCL1 (FIG. 12G) mRNA level for WT iPSC-derived NK and BCL2 G101V iPSC-derived NK cells vehicle or venetoclax treated. FIG. 12H. Immunoblots for BCL2, and BCL-XL protein levels with a β-actin loading control.
(§2) Resistance to venetoclax of the heterozygous and homozygous BCL2 G101V iPSC-derived NK cells was tested in cell survival assays.

[2] = system: Homozygous BCL2 G101V iPSC-derived NK cells (1F6); test: Venetoclax dose response / cell survival assay on homozygous BCL2 G101V (1F6) iPSC-derived NK cells; type: cell-based; conditions: Homo sapiens; homozygous BCL2G101V/G101V (1F6) NK cells; viability at 72 hours post treatment; read-out: EC50 where 50% of the NK cells are killed by venetoclax
Protocol: as §1, §2

[3] = system: Heterozygous BCL2 G101V iPSC-derived NK cells (BCL2G101V/WT); test: Venetoclax dose response / cell survival assay on heterozygous BCL2 G101V iPSC-derived NK cells; type: cell-based; conditions: Homo sapiens, viability at 72 hours post treatment
Protocol: as §1, §2

[4] = system: WT MOLM13 cells; test: Venetoclax sensitivity of WT MOLM13 cells; type: cell-based; conditions: Homo sapiens, MOLM-13
Description: (§3) For longer-term assays to examine the ability of BCL2G101V/G101V iPSC-derived NK cells to mediate effective killing of venetoclax-resistant AML cells, MOLM13 cells that are venetoclax-resistant were generated.

[5] = system: venetoclax-resistant MOLM13 cells; test: Venetoclax sensitivity of venetoclax-resistant MOLM13 cells; type: cell-based
Protocol: The MOLM13 cells lines were cultured continuously in increasing concentrations of venetoclax over 6 weeks to generate and select for venetoclax-resistant cells. The resulting cells could be maintained in 3 μM venetoclax without toxicity. The resistant cells were cultured continuously in the presence of venetoclax.
as §3

[6] = system: luciferase-expressing, venetoclax-resistant MOLM-13 cells; test: Mouse xenograft study (MOLM13 AML); type: in vivo; conditions: NSG mice, 1×10^7 NK cells IV, venetoclax 50 mg/kg daily for 21 days where given
Protocol: FIG. 15: A schema of NK cell dosing regimen and venetoclax treatment plan. NSG mice were inoculated IV with 2.5×10^5 luciferase-expressing MOLM13 cells, and tumor engraftment was assessed by IVIS imaging 4 days later for baseline pre-treatment grouping. On day 4 after tumor inoculation, mice were either left untreated or treated with 1×10^7 WT iPSC-derived NK cells or BCL2 G101V iPSC-derived NK cells alone or in combination with venetoclax for 21 days. NK cells were supported by injection of IL-15 for the first week and IL-2 for three weeks with IVIS imaging done as indicated to monitor tumor progression.
Eight-week-old NOD/SCID/γc−/− (NSG) mice (Jackson Laboratories, n=5 per group) were used for in vivo experiments. Mice received 2.5×10^5 luciferase-expressing MOLM13 tumor cells intravenously. Mice were sub-lethally irradiated (225 cGy) 4 days after tumor engraftment. 107 NK cells/mouse were injected IV on the day of irradiation. NK cells were supported by the injection of IL-2 and IL-15 as reported previously 27, 28. […] Tumor burden was determined by BLI using the Xenogen IVIS Imaging system. […]
To evaluate the anti-tumor activity of BCL2G101V/G101V NK cells in vivo, BCL2G101V/G101V iPSC-derived NK cell killing of MOLM13 AML cells was assessed in a mouse xenograft tumor model. […] Tumor growth was monitored by bioluminescent imaging (BLI) (FIG. 16A).

[7] = dose of 400 mg/day; cited from earlier work

With CC1(C)CCC(CN2CCN(c3ccc(C(=O)NS(=O)(=O)c4ccc(NCC5CCOCC5)c([N+](=O)[O-])c4)c(Oc4cnc5[nH]ccc5c4)c3)CC2)=C(c2ccc(Cl)cc2)C1 [venetoclax] the EC50 ([1]; Homo sapiens, WT iPSC-derived NK cells, viability at 72 hours post treatment, read-out: EC50 where 50% of the NK cells are killed by venetoclax) was 63.7 nM, the “toxicity to unengineered NK cells” value ([1]; at serum concentration of 2.3 μmol/L) was “toxic” and the EC50 [2] was 6020 nM. For the same compound, the EC50 [3] was 3550 nM, the IC50 [4] was 24 nM and the “increased resistance to venetoclax compared to WT MOLM13 cells” value ([5]; venetoclax-resistant MOLM13) was “over 100 fold”. The “venetoclax concentration in which resistant cells could be maintained without toxicity” value ([5]; venetoclax-resistant MOLM13, selected over 6 weeks) was 3 µM, the median survival [6] was 18.8 days and the serum concentration [7] was 2300 nM.
